Drawing on patent US20120270237A9, “METHODS FOR THE IDENTIFICATION OF KINASE INTERACTING MOLECULES AND FOR THE PURIFICATION OF KINASE PROTEINS” (Cellzone AG, priority 2009, published 2012), this text covers inhibition and Competition % for 1 compound.

In general, inhibition refers to the change of the read-out against control, counted positive when it falls. Read a low inhibition as a response near the control.

Each structure is given as a SMILES string.

What all share (assay): Kinobeads competition binding, HL60 cell lysate
Parameters in all cases: endogenous in cells; host or cells: HL60
Holding throughout (details): 10 μM free compound

For one experiment, the target named is GSK3B (Homo sapiens, UniProt P49841). Summed up: (§1)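 Competition readout: iTRAQ reporter-ion peak areas (LC-MS/MS) comparing bead-bound kinase with 10 μM free compound versus 0.5% DMSO. Compound-immobilized Sepharose was incubated with HL60 lysate, 50 mg protein, 2 h, 4 °C, then washed, eluted in SDS buffer and resolved by SDS-PAGE.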
The target in the next experiment is GSK3A (Homo sapiens, UniProt P49840). Summed up: as §1
The next experiment deals with T1, PIP5K2C (Homo sapiens, UniProt Q8TBX8).
T1 sequence (Q8TBX8 1-421): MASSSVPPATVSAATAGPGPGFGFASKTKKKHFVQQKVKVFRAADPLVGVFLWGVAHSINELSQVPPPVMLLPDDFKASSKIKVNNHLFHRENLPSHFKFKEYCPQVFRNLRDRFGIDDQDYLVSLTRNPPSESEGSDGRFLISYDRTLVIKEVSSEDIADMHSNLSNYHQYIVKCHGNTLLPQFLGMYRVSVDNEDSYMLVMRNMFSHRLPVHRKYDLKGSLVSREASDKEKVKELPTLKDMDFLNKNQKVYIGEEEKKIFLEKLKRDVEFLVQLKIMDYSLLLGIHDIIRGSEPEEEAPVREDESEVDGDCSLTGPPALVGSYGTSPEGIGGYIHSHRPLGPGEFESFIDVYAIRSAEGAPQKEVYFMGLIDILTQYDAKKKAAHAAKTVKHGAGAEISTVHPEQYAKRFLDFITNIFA
Summed up:
as §1

The target in a further experiment is MYT1 (Homo sapiens, UniProt Q99640). Summed up:
as §1

For another experiment, the target named is IRAK1 (Homo sapiens, UniProt P51617). Summed up:
as §1

The next experiment deals with HIPK2 (Homo sapiens, UniProt Q9H2X6). Summed up:
as §1

The next experiment deals with T2, IRAK4 (Homo sapiens, UniProt Q9NWZ3).
T2 sequence (Q9NWZ3 1-460): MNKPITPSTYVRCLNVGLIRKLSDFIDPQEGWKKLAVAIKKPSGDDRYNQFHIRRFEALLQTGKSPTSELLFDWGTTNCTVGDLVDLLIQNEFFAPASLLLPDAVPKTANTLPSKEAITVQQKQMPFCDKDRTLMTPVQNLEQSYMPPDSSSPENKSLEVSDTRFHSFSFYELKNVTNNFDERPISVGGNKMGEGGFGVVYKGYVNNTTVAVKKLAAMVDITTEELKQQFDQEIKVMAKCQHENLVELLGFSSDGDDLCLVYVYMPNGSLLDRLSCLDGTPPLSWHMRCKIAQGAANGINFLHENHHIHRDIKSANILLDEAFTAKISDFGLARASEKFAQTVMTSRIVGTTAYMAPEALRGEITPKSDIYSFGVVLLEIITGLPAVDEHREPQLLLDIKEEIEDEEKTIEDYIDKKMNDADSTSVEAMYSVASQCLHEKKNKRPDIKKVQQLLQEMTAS
Summed up: as §1

Chain of HIPK2 (Q9H2X6 whole entry): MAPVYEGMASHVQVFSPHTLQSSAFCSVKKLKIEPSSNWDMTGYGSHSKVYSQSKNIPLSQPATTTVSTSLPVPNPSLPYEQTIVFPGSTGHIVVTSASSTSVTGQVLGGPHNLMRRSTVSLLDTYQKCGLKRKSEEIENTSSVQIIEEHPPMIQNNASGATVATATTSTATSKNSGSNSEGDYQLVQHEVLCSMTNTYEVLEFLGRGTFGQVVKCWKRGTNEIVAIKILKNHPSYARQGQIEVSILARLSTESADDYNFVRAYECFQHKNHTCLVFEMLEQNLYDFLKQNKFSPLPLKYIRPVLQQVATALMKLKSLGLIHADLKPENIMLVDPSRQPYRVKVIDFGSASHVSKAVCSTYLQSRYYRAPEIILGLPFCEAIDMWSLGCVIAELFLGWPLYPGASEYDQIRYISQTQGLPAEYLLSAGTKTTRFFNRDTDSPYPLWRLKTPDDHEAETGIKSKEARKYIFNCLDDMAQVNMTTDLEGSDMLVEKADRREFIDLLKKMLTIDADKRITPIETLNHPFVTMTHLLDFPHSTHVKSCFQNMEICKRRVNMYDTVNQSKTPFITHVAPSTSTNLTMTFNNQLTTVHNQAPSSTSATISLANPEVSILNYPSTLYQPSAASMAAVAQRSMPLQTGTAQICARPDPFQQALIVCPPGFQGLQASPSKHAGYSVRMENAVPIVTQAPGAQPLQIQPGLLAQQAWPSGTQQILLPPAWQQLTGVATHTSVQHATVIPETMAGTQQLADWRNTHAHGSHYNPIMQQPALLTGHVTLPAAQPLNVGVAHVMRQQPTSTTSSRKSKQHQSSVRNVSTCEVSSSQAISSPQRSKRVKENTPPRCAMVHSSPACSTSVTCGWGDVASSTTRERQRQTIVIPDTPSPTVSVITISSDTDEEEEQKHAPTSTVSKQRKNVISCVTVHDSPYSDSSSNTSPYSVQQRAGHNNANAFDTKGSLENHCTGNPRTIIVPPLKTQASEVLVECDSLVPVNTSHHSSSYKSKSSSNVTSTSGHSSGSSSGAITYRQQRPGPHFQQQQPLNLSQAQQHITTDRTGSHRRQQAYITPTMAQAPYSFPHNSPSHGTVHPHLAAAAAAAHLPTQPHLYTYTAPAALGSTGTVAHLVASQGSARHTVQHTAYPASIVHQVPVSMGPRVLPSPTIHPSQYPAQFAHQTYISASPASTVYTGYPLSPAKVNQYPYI
Chain of GSK3A (P49840 whole entry): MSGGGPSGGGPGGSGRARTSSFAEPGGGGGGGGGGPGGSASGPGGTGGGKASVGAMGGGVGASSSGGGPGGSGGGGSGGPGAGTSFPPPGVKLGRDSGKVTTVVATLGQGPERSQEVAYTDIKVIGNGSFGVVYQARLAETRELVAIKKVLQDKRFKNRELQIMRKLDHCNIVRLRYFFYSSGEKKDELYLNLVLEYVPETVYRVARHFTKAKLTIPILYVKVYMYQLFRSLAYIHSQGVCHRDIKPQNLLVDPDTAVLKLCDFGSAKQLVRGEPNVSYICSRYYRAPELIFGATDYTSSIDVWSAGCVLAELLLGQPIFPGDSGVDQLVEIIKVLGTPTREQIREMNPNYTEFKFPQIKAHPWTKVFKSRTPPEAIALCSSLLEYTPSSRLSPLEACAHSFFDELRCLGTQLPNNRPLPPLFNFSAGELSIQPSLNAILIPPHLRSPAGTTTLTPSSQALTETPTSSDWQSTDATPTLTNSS
Chain of GSK3B (P49841 whole entry): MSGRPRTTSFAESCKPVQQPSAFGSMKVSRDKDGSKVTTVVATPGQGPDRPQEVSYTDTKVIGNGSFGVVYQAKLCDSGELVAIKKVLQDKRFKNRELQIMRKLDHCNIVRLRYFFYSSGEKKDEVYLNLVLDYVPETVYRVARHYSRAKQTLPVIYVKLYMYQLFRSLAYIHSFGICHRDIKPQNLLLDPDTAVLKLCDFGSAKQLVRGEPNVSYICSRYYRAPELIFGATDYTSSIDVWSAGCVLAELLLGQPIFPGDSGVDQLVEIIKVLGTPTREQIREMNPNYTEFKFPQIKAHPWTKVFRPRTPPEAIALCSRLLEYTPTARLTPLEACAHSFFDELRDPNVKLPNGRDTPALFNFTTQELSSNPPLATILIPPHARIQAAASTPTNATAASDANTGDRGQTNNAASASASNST
Chain of IRAK1 (P51617 whole entry): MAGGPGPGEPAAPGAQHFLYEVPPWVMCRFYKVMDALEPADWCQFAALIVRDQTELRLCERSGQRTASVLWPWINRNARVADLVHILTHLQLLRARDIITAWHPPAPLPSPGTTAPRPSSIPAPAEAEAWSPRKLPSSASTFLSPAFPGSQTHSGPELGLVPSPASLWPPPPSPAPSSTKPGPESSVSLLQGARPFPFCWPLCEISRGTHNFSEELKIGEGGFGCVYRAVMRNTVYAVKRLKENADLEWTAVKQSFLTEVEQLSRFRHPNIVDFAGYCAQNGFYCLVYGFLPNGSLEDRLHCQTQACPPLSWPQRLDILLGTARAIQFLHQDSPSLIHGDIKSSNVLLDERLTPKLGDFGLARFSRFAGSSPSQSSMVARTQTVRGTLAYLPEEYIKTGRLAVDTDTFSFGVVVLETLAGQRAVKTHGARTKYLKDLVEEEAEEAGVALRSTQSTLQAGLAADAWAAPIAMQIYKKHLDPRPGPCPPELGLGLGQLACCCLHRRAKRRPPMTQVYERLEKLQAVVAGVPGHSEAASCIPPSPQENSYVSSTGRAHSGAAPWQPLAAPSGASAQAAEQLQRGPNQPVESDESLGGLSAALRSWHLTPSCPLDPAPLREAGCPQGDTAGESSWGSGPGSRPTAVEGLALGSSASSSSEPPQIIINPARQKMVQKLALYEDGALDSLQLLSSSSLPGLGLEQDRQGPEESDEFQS
Chain of MYT1 (Q99640 whole entry): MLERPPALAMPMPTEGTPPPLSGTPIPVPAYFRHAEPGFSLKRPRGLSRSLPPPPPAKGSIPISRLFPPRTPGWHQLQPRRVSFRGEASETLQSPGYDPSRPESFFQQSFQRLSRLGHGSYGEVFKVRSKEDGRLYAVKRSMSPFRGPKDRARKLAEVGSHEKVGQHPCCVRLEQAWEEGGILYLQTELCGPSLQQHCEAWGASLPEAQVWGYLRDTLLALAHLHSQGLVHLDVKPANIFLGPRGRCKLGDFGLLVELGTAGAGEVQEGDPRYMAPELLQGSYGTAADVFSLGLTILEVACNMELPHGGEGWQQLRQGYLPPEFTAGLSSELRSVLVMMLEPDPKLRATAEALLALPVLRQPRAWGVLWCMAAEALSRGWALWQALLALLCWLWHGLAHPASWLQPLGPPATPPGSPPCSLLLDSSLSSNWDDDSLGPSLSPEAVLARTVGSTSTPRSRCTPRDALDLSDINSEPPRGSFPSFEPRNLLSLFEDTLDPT

Regarding `CS(=O)(=O)Nc1ccccc1Nc1nc(Nc2cccc(OCCN)c2)ncc1Cl` [CZC31326, N-(2-(2-(3-(2-aminoethoxy)phenylamino)-5-chloropyrimidin-4-ylamino)phenyl)methanesulfonamide], the inhibition at 10 µM at GSK3B worked out at 96.1%; on GSK3A, 96.2%; on PIP5K2C it was 98.3%; at IRAK1 it was 94.9%; on HIPK2, 94.4%. The Competition % worked out at 90.5% at MYT1 and 97.5% at IRAK4.
